In patent US11819569B2, “Treating inflammation with inhaled aspirin” (VECTURA INC., priority 2013, dated 2023):
Where two headings read alike, the source gives them in different places.

How the values were obtained:
[1] = oral solution of 650 mg, four male subjects; cited from earlier work
[2] = cited from earlier work
[3] = cited from earlier work; remark: listed apart in the source
[4] = cited from earlier work; remark: listed apart in the source
[5] = Pharmacokinetic studies after oral administration of ASA (cited Dressman et al.); details: extrapolated from linear pharmacokinetics, dose not stated
[6] = after oral administration of ASA
[7] = metabolite after oral administration of ASA

Compound | share of the dose that reached the peripheral circulation intact (AUC oral vs intravenous) [1] | elimination half-life [2, 6] | time to peak plasma levels [2, 6] | pharmacokinetic behavior over dosage range ([2]; dosage range from 30-400 mg) | loss or inactivation of the oral dosage due to the first pass effect in the gut and liver ([3]; oral administration) | fraction of the oral dose that is bioavailable ([3]; taken orally, first pass effect) | vascular events prevented ([4]; Dutch TIA Study, any dose above 30 mg daily, oral) | increase of major gastrointestinal and extracranial bleeds ([4]; oral aspirin, studies used dosages of 325 mg) | elimination half-life [2, 7] | period over which plasma levels increase following administration of ASA [2, 7] | expected peak circulating plasma level [5]
CC(=O)Oc1ccccc1C(=O)O [aspirin, acetylsalicylic acid] | 68% | 0.25 to 0.333 h | about 20 minutes | linear | approximately ⅔ | about one to two-thirds | 13% | over 50% |  |  | 
O=C(O)c1ccccc1O [salicylate, salicylic acid] |  |  |  |  |  |  |  |  | 2 to 3 h | about 45 minutes | ~10 µg/mL
